Here are results for two compounds from US10179142B2, “Treatment and/or prevention of bone metastasis” (The Arizona Board of Regents on behalf of The University of …, priority 2013, dated 2019).

Common to all, as to format: cell-based, human
Test [1] deals with PC-3 cells. Nature of the test: Matrigel invasion assay. Conditions: for invasion: prostate cancer cells, concentration not given. Here is the method: PC-3 cells were pre-treated with DMSO vehicle control or with drug for 4 hours in T-25 flasks. Thereafter, 50,000 cells were then plated into the upper chamber that has been pre-coated with Matrigel (BD Sciences, San Jose, Ca) in the presence of drug or DMSO and serum-free media. The bottom well contained complete media including 10% FBS and 0.5% BSA as chemoattractants. After 24 hours, the upper chambers were removed, and any remaining cells within the insert were wiped with a cotton swab. Invading cells were then stained with 2% crystal violet in 20% methanol. Cells were then counted using a Zeiss stereomicroscope at 20× power. 10 random fields were counted. The results represent an average of two independent experiments, each run in triplicates.
As reported previously, inhibition of Tiam-1 and subsequent inactivation of downstream signaling proteins leads to reduced actin cytoskeleton rearrangements resulting in decreased cell motility. […] FIG. 4, Panel A, A wound channel was introduced near-to-confluent non-treated or treated PC-3 cells with 10 μM V pKLO1 mock-transfection control cells, and shRNA cell line 1.2 (GS-1). […] FIG. 4, Panel B, PC-3 cells and Tiam-1 shRNA cell line 1.2 (shRNA 1.2) were treated as indicated, then stimulated with 20% FBS for 20 minutes to induce lamellipodia formation and stained with rhodamin phalloidin. Individual lamellipodia were counted in a minimum of 10 cells in each respective group and statistical analysis was performed using a Student's t-test. […] FIG. 4, Panel C, pKLO1 PC-3 cells, pKLO1 treated with 10 μM compound V and shRNA 1.2 cells were allowed to invade through Matrigel-coated transwell plates. Invading cells were stained after 12 hours and counted at 20× power (left side). […] In order to test our hypothesis, cells were stained with rhodamin phalloidin and then analyzed for actin/cytoskeleton formations, such as lamellipodia. […] Thus, the observed reduction in cellular motility in compound V treated cells and Tiam-1 silenced cells may be the result of f-actin disruption and reduced frequencies of lamellipodia formation. […]

Test [2] relates to PC-3 cells. Nature of the test: Migration wound closure assay. The following applies: for migration / motility (wound healing): prostate cancer cells, concentration not given. As for the experimental part: PC-3, DU145 and LNCaP cells were grown in six-well plates in the presence of 10% FBS. Once the cells formed a monolayer, near confluency a wound was done manually with a sterile […] pipette tip in the center of each well. Cells were treated with vehicle alone (DMSO) or 10 μM of compound IV and were grown in the presence of 2% FBS. After 18 hours, the migrating cells were photographed. The wound closure was quantified by measuring the distance between the two sides of the wound. The results represent an average of two independent experiments, each run in triplicates.
As reported previously, inhibition of Tiam-1 and subsequent inactivation of downstream signaling proteins leads to reduced actin cytoskeleton rearrangements resulting in decreased cell motility. […] FIG. 4, Panel A, A wound channel was introduced near-to-confluent non-treated or treated PC-3 cells with 10 μM V pKLO1 mock-transfection control cells, and shRNA cell line 1.2 (GS-1). […] FIG. 4, Panel B, PC-3 cells and Tiam-1 shRNA cell line 1.2 (shRNA 1.2) were treated as indicated, then stimulated with 20% FBS for 20 minutes to induce lamellipodia formation and stained with rhodamin phalloidin. Individual lamellipodia were counted in a minimum of 10 cells in each respective group and statistical analysis was performed using a Student's t-test. […] FIG. 4, Panel C, pKLO1 PC-3 cells, pKLO1 treated with 10 μM compound V and shRNA 1.2 cells were allowed to invade through Matrigel-coated transwell plates. Invading cells were stained after 12 hours and counted at 20× power (left side). […] In order to test our hypothesis, cells were stained with rhodamin phalloidin and then analyzed for actin/cytoskeleton formations, such as lamellipodia. […] Thus, the observed reduction in cellular motility in compound V treated cells and Tiam-1 silenced cells may be the result of f-actin disruption and reduced frequencies of lamellipodia formation. We next tested whether the compound of Formula V affected invasion of PC-3 through Matrigel-coated transwells.

Another test deals with prostate cancer cells. In words: Colony formation (FIG. 4, cell line not given). As for the experimental part: PC-3, LNCaP and DU145 cells were plated at 1000 cells/well into standard 6-well plates (3.5 cm) in the presence of complete media. The next day cells were drugged at increasing concentrations ranging from 1 to 50 μM in triplicate wells. Cells were viewed twice weekly to check for colony growth and confluence. Media and respective drugs were carefully replaced every three days. At day 12, media was aspirated and resulted colonies were stained with crystal violet (0.5% w/v) dissolved in ethanol for one minute, washed with water, and air dried as already described in reference. The resulting colonies were counted utilizing an Optronix Colony counter using ColCount software (Oxford Optronix Ltd, UK). The results represent an average of two independent experiments, each run in triplicates.

Test [3] relates to PC-3 cells. Nature of the test: Lamellipodia forming assay. Here is the method: Glass coverslips were sterilized with 100% EtOH and placed in 6-well plates. PC-3 cells, pKLO.1, GS-1 and GS-2 cells were plated at 3000 cells/well and allowed to adhere overnight. Cells where then serum starved for 48 hours, then treated with the indicated drug for 12 hours, and stimulated with 20% FBS for 30 minutes. Coverslips were then removed from the plates, washed twice with cold PBS, and fixed with 3.7% paraformaldehyde solution in PBS for 10 minutes. Cells were then permeabilized using 0.1% Triton X-100 for 5 minutes. Cells were stained with rhodamine phalloidin (Invitrogen, Carlsbad, Calif.) for 20 minutes using the supplied protocol. Coverslips were then air-dried and mounted using ProLong Gold with DAPI (Invitrogen, Carlsbad, Calif.) and stored at 4° C. Cells were visualized at 40× using Olympus Bx-50 microscope with the CellSens imaging software. Individual lamellipodia were counted in a minimum of 10 cells in each respective group and statistical analysis was done using a Student's t-test.
As reported previously, inhibition of Tiam-1 and subsequent inactivation of downstream signaling proteins leads to reduced actin cytoskeleton rearrangements resulting in decreased cell motility. […] FIG. 4, Panel A, A wound channel was introduced near-to-confluent non-treated or treated PC-3 cells with 10 μM V pKLO1 mock-transfection control cells, and shRNA cell line 1.2 (GS-1). […] FIG. 4, Panel B, PC-3 cells and Tiam-1 shRNA cell line 1.2 (shRNA 1.2) were treated as indicated, then stimulated with 20% FBS for 20 minutes to induce lamellipodia formation and stained with rhodamin phalloidin. Individual lamellipodia were counted in a minimum of 10 cells in each respective group and statistical analysis was performed using a Student's t-test. […] Invading cells were stained after 12 hours and counted at 20× power (left side). […] In order to test our hypothesis, cells were stained with rhodamin phalloidin and then analyzed for actin/cytoskeleton formations, such as lamellipodia. […]

Test [4] deals with active Rac1 in PC-3 cells. Nature of the test: Rac1 activation assay (GLISA). The following applies: 1 μM, 4 hours, then 50 ng/ml hHGF for 2 minutes. Here is the method:
Rac1 activity was determined by the colorimetric GLISA Kit BK128 (Cytoskeleton, Inc, Denver, Co). Briefly, PC-3 (PC-3, pKLO.1, GS-1 and GS-2 cells), DU 145 and LNCap cells were grown to 75% confluence and then serum starved for 48 hours. Drugs were then added for 4 hours and cells were stimulated with 50 ng/ml hHGF (Gibco Life Sciences, Carlsbad, Ca) for 2 minutes. Cells were then lysed and harvested as described in the kit-supplied protocol. Protein concentration was normalized to 1.0 g/l. Plates were read in an absorbance spectrophotometer at 490 nm at 24° C. with 5 s medium orbital shaking. Data were analyzed as described in the supplied protocol. The results represent an average of three independent experiments, each run in duplicates.
A cellular screen of all hit compounds was conducted using the GLISA Rac1 activation kit. Briefly, PC-3 cells were drugged for 4 hours at 1 μM concentration with the selected compounds. Cells were then stimulated with 50 ng/ml of hHGF for 2 minutes. […] The isovolume of Tiam-1 PH domain (PDB 1FOE) was generated using GRID for the H-bond acceptor (−3.6 kcal/mol), the H-bond donor (−7.3 kcal/mol) and hydrophobic (−2.5 kcal/mol) probes. The critical residues are labeled around the isovolume surfaces. The dash lines represent hydrogen bonds between protein and inhibitors. […]

Where [5] appears, read: prostate cancer cells, concentration not given.

Molecules are shown by their SMILES. “Also recorded” adds a separate entry of the source.

Regarding `c1ccc(Cn2nnc3c(Sc4nnc(-c5ccncc5)o4)ncnc32)cc1` [VI], the invasion entry in the test on PC-3 cells [1] was “inhibits; also recorded: reduce invasion”. In addition, the “migration / motility (wound healing)” value in the test on PC-3 cells [2] is on record as “inhibits; also recorded: reduce migration”. Moreover, the colony formation entry with prostate cancer cells was “inhibits”. In the test on PC-3 cells [3] (setting [5]), the lamellipodia formation entry is on record as “inhibits; also recorded: reduce lamellipodia formation”. For the same compound, the “reduction of active Rac1” value in test [4] is “most pronounced and significant reduction of active Rac1”.

With `Cc1ccc(-n2cc(-c3cccs3)nc2SCc2n[nH]c(=S)n2Cc2ccccc2)cc1` [compound V], in the test with PC-3 cells [1] (PC-3 cells, 10 μM), the “invasion through Matrigel-coated transwells” value is listed as “significantly reduced amount of invading cells”. Besides, the invasion result with PC-3 cells [1] is reported as “inhibits; also recorded: reduce invasion”. The wound closure result in the test on PC-3 cells [2] (PC-3 cells, 10 μM, after 18 hours) is “significant inability to close a wound”. The “migration / motility (wound healing)” value in the test on PC-3 cells [2] is given as “inhibits; also recorded: reduce migration”. In the test on prostate cancer cells, the colony formation entry is on record as “inhibits”. Moreover, the lamellipodia formation entry is given as “significantly reduced the frequency of lamellipodia formation” in the test with PC-3 cells [3] (PC-3 cells, 10 μM, stimulation with 20% FBS) and “inhibits; also recorded: reduce lamellipodia formation” in the test with PC-3 cells [3] (setting [5]). The “reduction of active Rac1” value in test [4] was “most pronounced and significant reduction of active Rac1”.
